In the RepoRT retention time repository:

Assay: HILIC, Waters ACQUITY UPLC BEH Amide, 100 × 2.1 mm, 1.7 µm; A: water + 0.125% formic acid + 10 mM ammonium formate; B: 5% water + 95% acetonitrile + 0.125% formic acid + 10 mM ammonium formate; gradient (min/%B) 0/100 2/100 7.7/70 9.5/40 10.25/30 12.75/100 17/100
Details: stereoisomer not certain

| Compound | LC retention time |
| --- | --- |
| COc1cc(C2c3cc4c(cc3C(OC3OC5COC(C)OC5C(O)C3O)C3COC(=O)C23)OCO4)cc(OC)c1O (stereo not drawn) [Etoposide] | 1.3 min |
| CC(C)CC(N)C(=O)O (stereo not drawn) [Leucine] | 7.08 min |
| O=C(O)CCC(O)C(=O)O (stereo not drawn) [2-Hydroxyglutaric acid] | 0.91 min |
| OCC1OC(n2cnc3c(NC4CCCC4)nc(Cl)nc32)C(O)C1O (stereo not drawn) [2-Chloro-N6-cyclopentyladenosine] | 1.47 min |
| O=C1CC(c2ccc(O)cc2)Oc2cc(O)ccc21 (stereo not drawn) [Liquiritigenin] | 1.3 min |
| Nc1nc2[nH]c(=O)cnc2c(=O)[nH]1 [Isoxanthopterin] | 6.41 min |
| CC(C)NCC(O)COc1ccc(CCOCC2CC2)cc1 (stereo not drawn) [Betaxolol] | 3.05 min |
| CC(C)(CO)C(O)C(=O)NCCCO (stereo not drawn) [Panthenol] | 1.9 min |
| O=C(O)C=Cc1ccc(Cn2ccnc2)cc1 [Ozagrel] | 2.99 min |
| Cc1cn(C2OC(CO)C(O)C2O)c(=O)[nH]c1=O (stereo not drawn) [5-Methyluridine] | 4.19 min |
| O=CCC(O)C(O)CO (stereo not drawn) [2-Deoxyribose] | 1.42 min |
| CC(C)C12OC1C1OC13C1(C)CCC4=C(COC4=O)C1CC1OC13C2O (stereo not drawn) [Triptolide] | 1.02 min |
| COC(=O)C1=C(C)NC(C)=C(C(=O)OC(C)C)C1c1cccc2nonc12 (stereo not drawn) [Isradipine] | 0.95 min |
| CC12CCC(=O)C=C1CCC1C2CCC2(C)C(O)CCC12 (stereo not drawn) [Testosterone] | 1.05 min |
| NC1CCN(c2cccc(Cl)n2)CC1 | 4.85 min |
| CC(=O)CCCCn1cnc2c1c(=O)n(C)c(=O)n2C [Lomifylline] | 1.09 min |
| CN1C2CCC1C(C(=O)O)C(O)C2 (stereo not drawn) [Ecgonine] | 7.61 min |
| CSc1nc2cc(Oc3cccc(Cl)c3Cl)c(Cl)cc2[nH]1 [Triclabendazole] | 1.01 min |
| COCCCOc1ccnc(CS(=O)c2nc3ccccc3[nH]2)c1C (stereo not drawn) [Rabeprazole] | 2.44 min |
| NC1C(O)OC(COP(=O)(O)O)C(O)C1O (stereo not drawn) [Glucosamine-6-phosphate] | 10.1 min |
| C[Si](C)(C)CCC(=O)O [3-Trimethylsilylpropionic acid] | 5.64 min |
| COc1cc(CNC(=O)CCCCCCC(C)C)ccc1O [Dihydrocapsaicin] | 1.07 min |

| Compound | LC retention time |
| --- | --- |
| COc1ccc(-c2coc3cc(O)ccc3c2=O)cc1 [Formononetine] | 1.18 min |
| COc1cn(C2OC(CO)C(O)C2O)c(=O)[nH]c1=O (stereo not drawn) [5-Methoxyuridine] | 4.72 min |
| CNCCc1cnc[nH]1 [N-alpha-methylhistamine] | 7.48 min |
| NCCC(=O)NC(Cc1cnc[nH]1)C(=O)O (stereo not drawn) [Carnosine] | 9.54 min |
| CN1CCC(=C2c3ccccc3CC(=O)c3sccc32)CC1 [Ketotifen] | 2.71 min |
| Nc1ccnc(=O)[nH]1 [Cytosine] | 5.9 min |
| NC(Cc1ccc(O)c(O)c1)C(=O)O (stereo not drawn) [3,4-Dihydroxyphenylalanine] | 8.31 min |
| Cc1c(O)cccc1C(=O)NC(CSc1ccccc1)C(O)CN1CC2CCCCC2CC1C(=O)NC(C)(C)C (stereo not drawn) [Nelfinavir] | 1.55 min |
| CC(CCCCC(=O)Nc1ccc(C(F)(F)F)cc1)NCCc1cnc[nH]1 (stereo not drawn) [Histamine-trifluoromethyltoluide] | 5.3 min |
| CCC1(O)CC2CN(CCc3c([nH]c4ccccc34)C(C(=O)OC)(c3cc4c(cc3OC)N(C=O)C3C(O)(C(=O)OC)C(OC(C)=O)C5(CC)C=CCN6CCC43C65)C2)C1 (stereo not drawn) [Vincristine] | 3.7 min |
| CC(C)NCC(O)c1ccc(NS(C)(=O)=O)cc1 (stereo not drawn) [Sotalol] | 4.87 min |
| C[C@](N)(Cc1cnc[nH]1)C(=O)O [alpha-Methylhistidine] | 8.68 min |
| CCCCCCCCCCCCCCCCCC(=O)OCC(O)CO (stereo not drawn) [1-Monostearin] | 0.99 min |
| NC(C(=O)NC1C(=O)N2C(C(=O)O)=C(Cl)CSC12)c1ccccc1 (stereo not drawn) [Cefaclor] | 5.61 min |
| COC1C(CO)OC(n2ccc(=O)[nH]c2=O)C1O (stereo not drawn) [3'-O-Methyluridine] | 2.42 min |
| Cc1nnc2n1-c1ccc(Cl)cc1C(c1ccccc1)=NC2 [Alprazolam] | 1.34 min |
| CC12CCC(=O)C=C1CCC1C2CCC2(C)C1CCC2(O)C(=O)CO (stereo not drawn) [Cortodoxone] | 1.15 min |
| Cc1ncc(CO)c(CO)c1O [Pyridoxine] | 3.78 min |
| O=C(OC1CC2CC3CC(C1)N2CC3=O)c1c[nH]c2ccccc12 (stereo not drawn) [Dolasetron] | 1.9 min |
| CS(=O)CCCCC(=NOS(=O)(=O)O)SC1OC(CO)C(O)C(O)C1O (stereo not drawn) [Glucoraphanin] | 7.37 min |
| O=C1OC(C(O)CO)C(O)=C1O (stereo not drawn) [Ascorbic acid] | 1.44 min |
| NC(CCC(=O)NC(CSSCC(N)C(=O)O)C(=O)NCC(=O)O)C(=O)O [L-Cysteine-glutathione disulfide] | 10.2 min |

| Compound | LC retention time |
| --- | --- |
| Cc1ccnc2c1NC(=O)c1cccnc1N2C1CC1 [Viramune] | 1.16 min |
| NC(CO)C(=O)NC(Cc1ccc(O)cc1)C(=O)O (stereo not drawn) [Ser-Tyr] | 8.44 min |
| CN1CCN(CCCN2c3ccccc3Sc3ccc(Cl)cc32)CC1 [Prochlorperazine] | 2.56 min |
| CC(=O)OC1CC(C)(C)C(=C=CC(C)=CC=CC(C)=CC=CC=C(C)C=CC=C(C)C(=O)CC23OC2(C)CC(O)CC3(C)C)C(C)(O)C1 (stereo not drawn) [Fucoxanthin] | 1.07 min |
| O=c1cnn(C2OC(CO)C(O)C2O)c(=O)[nH]1 (stereo not drawn) [6-Azuridine] | 4.31 min |
| Cn1c(NCCN(CCO)CCCc2ccc([N+](=O)[O-])cc2)cc(=O)n(C)c1=O [Nifekalant] | 3.21 min |
| COc1ccc(-c2cc(=O)c3c(OC)c(OC)c(OC)c(OC)c3o2)cc1OC [Nobiletin] | 1 min |
| O=C(c1ccccc1)c1ccc2n1CCC2C(=O)O (stereo not drawn) [Toradol] | 1.29 min |
| CC(C)CC(NC(=O)CCC(N)C(=O)O)C(=O)O (stereo not drawn) [gamma-Glutamylleucine] | 8.1 min |
| COc1ccc(C=CC(=O)Nc2ccccc2C(=O)O)cc1OC [Tranilast] | 1.26 min |
| COc1cc(C)nc(-n2nc(C)cc2OC)n1 [Mepirizole] | 1.03 min |
| CCC(=O)Nc1ccc(Cl)c(Cl)c1 [Propanil] | 1.08 min |
| CCC(C(N)=O)N1CCCC1=O (stereo not drawn) [Levetiracetam] | 1.45 min |
| COc1cc2c(cc1OC)C1C(C)c3ccc(OC)c(OC)c3CN1CC2 (stereo not drawn) [Corydaline] | 1.52 min |
| C=CCC1(C(C)C#CCC)C(=O)NC(=O)N(C)C1=O (stereo not drawn) [Methohexital] | 6.9 min |
| COc1cc(C(=O)NS(=O)(=O)c2ccccc2C)ccc1Cc1cn(C)c2ccc(NC(=O)OC3CCCC3)cc12 [Zafirlukast] | 1 min |
| CCCc1c(OCCCCc2nn[nH]n2)ccc(C(C)=O)c1O [Tomelukast] | 1.04 min |
| Cn1c(=O)[nH]c2[nH]c(=O)n(C)c2c1=O [1,7-Dimethyluric acid] | 4.09 min |
| CC(C)(N)Cc1ccccc1 [Phentermine] | 6.23 min |
| COCc1c(C(C)C)nc(C(C)C)c(C=CC(O)CC(O)CC(=O)O)c1-c1ccc(F)cc1 (stereo not drawn) [Cerivastatin] | 1.18 min |
| CN(C)CCCN1c2ccccc2CCc2ccc(Cl)cc21 [Clomipramine] | 2.31 min |
| CC(C)CC(NC(=O)CN)C(=O)O (stereo not drawn) [Glycyl-leucine] | 8.14 min |

| Compound | LC retention time |
| --- | --- |
| COCCOC(=O)C1=C(C)NC(C)=C(C(=O)OC(C)C)C1c1cccc([N+](=O)[O-])c1 (stereo not drawn) [Nimodipine] | 0.94 min |
| CC1CNc2c(cccc2S(=O)(=O)NC(CCCN=C(N)N)C(=O)N2CCC(C)CC2C(=O)O)C1 (stereo not drawn) [Argatroban] | 5.45 min |
| COC1C(O)C(CO)OC1n1ccc(N)nc1=O (stereo not drawn) [2'-O-Methylcytidine] | 5.02 min |
| O=C1C(CCC(O)c2ccc(F)cc2)C(c2ccc(O)cc2)N1c1ccc(F)cc1 (stereo not drawn) [Ezetimibe] | 1.03 min |
| OCC1OC(OC2C(CO)OC(O)C(O)C2O)C(O)C(O)C1O (stereo not drawn) [Maltose] | 8.75 min |
| NC(Cc1ccc(O)cc1)C(=O)NC(Cc1ccc(O)cc1)C(=O)NC(Cc1ccc(O)cc1)C(=O)O (stereo not drawn) [Tyr-Tyr-Tyr] | 7.09 min |
| Nc1nnc(-c2cccc(Cl)c2Cl)c(N)n1 [Lamotrigine] | 1.98 min |
| O=C(O)c1cc(N=Nc2ccc(S(=O)(=O)Nc3ccccn3)cc2)ccc1O [Sulfasalazine] | 2.01 min |
| CC(=O)NO [Acetohydroxamic acid] | 2.94 min |
| CC(N=C(NC#N)Nc1ccncc1)C(C)(C)C (stereo not drawn) [Pinacidil] | 1.49 min |
| NC(N)=NCCCC(N)C(=O)NCC(=O)O (stereo not drawn) [Arg-Gly] | 9.85 min |
| NC(N)=Nc1nc(CSCCC(N)=NS(N)(=O)=O)cs1 [Famotidine] | 5.59 min |
| NC(CCO)C(=O)O (stereo not drawn) [Homoserine] | 8.29 min |
| CC(c1cc2ccccc2s1)N(O)C(N)=O (stereo not drawn) [Zileuton] | 1.23 min |
| COc1cc(C(=O)O)cc(OC)c1O [Syringic acid] | 1.35 min |
| CC(CCC(=O)NCCS(=O)(=O)O)C1CCC2C3C(O)CC4CC(O)CCC4(C)C3CC(O)C12C (stereo not drawn) [Taurocholic acid] | 6.12 min |
| COc1ccc2[nH]cc(C3=CCNCC3)c2c1 | 4.61 min |
| Cc1ncsc1CCO [4-Methyl-5-thiazoleethanol] | 1.21 min |
| CC(C)C(NC(=O)C(N)CCCN=C(N)N)C(=O)O (stereo not drawn) [Arg-Val] | 9.3 min |
| COc1ccc(OC)c(C(O)C(C)N)c1 (stereo not drawn) [Methoxamine] | 4.75 min |
| CCOC(=O)OC(C)OC1=C(C(=O)Nc2ccccn2)N(C)S(=O)(=O)c2ccccc21 (stereo not drawn) [Ampiroxicam] | 0.95 min |
| CS(=O)(=O)Nc1ccc(Cc2noc(-c3ccc4[nH]cc(CCN)c4c3)n2)cc1 [L-694,247] | 5.25 min |
